Common to all, as to assay type: physicochemical
One data set is described as follows: Solubility in water.
A short description of data set [1]: Storage temperature (thermal stability).
A further data set in a line: pH stability. The note with it: for pH stability: pH range in which stable.
The next data set in a line: Solubility in methanol.
A further data set in a line: pKa.

Bounds are passed on as bounds.

By pKa is commonly meant the negative logarithm of the acid dissociation constant. A higher pKa goes with a weaker acid or stronger base. As to `O=C(O)[C@H](CO)O[C@@H]1O[C@H](CO)[C@@H](O)[C@H](O)[C@@H]1O`, in the data set “Solubility in water”, the Solubility in water entry is “Very good; 60-70% (w/v)”. Moreover, the Storage temperature result in data set [1] is “up to 95 °C”. In addition, the pH stability in “pH stability” was 2-12. Besides, the Solubility in methanol in “Solubility in methanol” came to 10%. Moreover, the pKa in the data set “pKa” is around 4.6.

Consider `NC(=O)[C@H](CO)O[C@@H]1O[C@H](CO)[C@@H](O)[C@H](O)[C@@H]1O` [Firoin-A, β-mannosylglyceramide], for which, in “pH stability” (pH above which alkaline hydrolysis occurs), the “pH stability: alkaline hydrolysis above pH” value is listed as “>pH 8-9”. For the same molecule, the pH stability entry in the data set “pH stability” is “Alkaline hydrolysis;”.
